Marks after values point to notes of the source that are not given here.
Legend:
[1] = test system: Colon 26/AD cells (mouse colon cancer); type: in vivo
Procedure: Colon 26 mouse colon cancer cells (obtained from Cancer Chemotherapy Center Foundation for Cancer Research) were transplanted subcutaneously to BALB/c mouse, 10 days later, the grown tumor was taken out. It was hashed in a Hanks equilibrium salt solution and passed through a metal mesh to obtain single cells, which were cultured in vitro (37° C., 5% CO2) (using 10% fetal bovine serum-containing Dulbecco's Modified Eagle Medium (D-5648, manufactured by Sigma Co.)). […] The same cell strain always produced and secreted MMP-2 in the supernatant of the in vitro culture, but when cultured by an addition of TNF-α (50 ng/ml) in the culture solution, it produced MMP-9 remarkably.
With reference to the method by Tsuruo et al (Japanese Journal of Cancer Research (Gann), Vol. 75, 193-198, 1984), the inhibition effects against experimental lung metastasis were evaluated. Namely, 3×10^4 Colon 26/AD cells (suspended in 0.2 ml of Minimum Essential Medium (manufactured by Nissui Seiyaku K. K.)) cultured in vitro were transplanted through the tail vein of a male BALB/c AnNCrj mouse (purchased from Charles River Japan, Inc.) of 6 weeks old (Day 0). In the case of Compound No. 37, it was suspended in a 1% Tween 80/physiological sodium chloride aqueous solution and intraperitoneally administered (administered in a volume of 10 ml/kg) immediately (within 5 minutes) before transplantation of the cells, 2 hours later and once per day on Day 1-4 and Day 7-11 (a total of 11 times). Further, in the case of Compound No. 157, it was dissolved in 100 mM Tris-HCl (pH 8.5)/150 mM NaCl and forcibly orally administered (administered in a volume of 10 ml/kg) by means of a metal sonde 30 minutes before transplantation of the cells, in the morning and evening of Day 1 and once per day on Day 2-4, Day 7-11 and Day 14 (a total of 12 times). To the vehicle control group, the respective solvents containing no test materials, were administered in the same manner. On Day 14 or Day 15, the lung of each mouse was taken out, and the weight was measured, and the metastatis inhibition rate was calculated in accordance with the following formula. [formula]
A is the weight of lung of the treated group
B is the average weight of lung of the normal group
C is the average weight of lung of the solvent control group.

[2] = test system: CPAE cells (bovine pulmonary-derived vascular endothelical cells); assay: Inhibitory action against capillary-like tube formation of vascular endothelial cells, three dimensional collagen gel culture; type: cell-based; conditions: for Number of networks Average ± SD: n = 5, Day 4
Procedure: With reference to the method disclosed in a literature (Hayashi, J. N. et al, Virchows arch. (B), Vol. 60,245-252, 1991, Lee, D. Y. et al, Life Science, Vol. 60, 127-134, 1997), evaluation was carried out by the following method.
7 Parts by volume of type I-a collagen (manufactured by Nitta Gelatin K. K.) and 2 parts by volume of Dulbecco's Modified Eagle Medium (concentration: 5 times, containing no NaHCO3; No. D-5648, manufactured by Sigma Co.) were thoroughly mixed under cooling with ice, and then one part by volume of a collagen gel-reconstructing buffer solution (2.2% NaHCO3/0.2M HEPES/0.05N NaOH) was added thereto. To withdraw bubbles, centrifugal separation and supersonic treatment were carried out, and then 400 μl of the gel was introduced into 24 well multi-well plate (Code 3047, manufactured by Falcon Co.) and incubated at 37° C. for about 10 minutes for gelation.
On the gelled collagen, CPAE cells (bovine pulmonary-derived vascular endothelical cells; ATCC CCL209, purchased from Dainippon Seiyaku K. K.) was inoculated in a concentration of 4×10^4 cells/400 μl/well (Day 0). Thereafter the cells were cultured overnight at 37° C. in a 5% CO2 incubator. Next day (Day 1), after confirming that the cells were normally proliferating, the culture solution was removed by aspiration, and a fresh collagen gel (prepared in the same manner as the above layer) was overlaid in an amount of 200 μl/well and gelled.
On the gel, the test materials dissolved in 10% fetal bovine serum-containing Dulbecco's Modified Eagle Medium (No. D-5648, manufactured by Sigma Co.) (prepared to have a concentration four times the final concentration) was added in an amount of 200 μl, and culturing was continued under the same conditions. Upon expiration of three days from stratification (Day 4), capillary-like tube formation was observed by a microscope, and an optional field of view was photographed with 100 magnifications, whereupon the number of capillary-like structures formed (the number of networks) were visually counted with reference to the method disclosed in a literature by Yeong, H. et al (Cancer Research, Vol. 56, 2428-2433, 1996). For each test sample, 2 well treatment was carried out, and a total of five fields of view were photographed for evaluation.

[3] = test system: mouse arthritis model induced by a single immunization with collagen; assay: Mouse arthritis model induced by a single immunization with collagen; type: in vivo
Procedure: With reference to the method by Kato, F. et al (Annals of the Rheumatic Diseases, Vol. 55, 535-539, 1996), a bovine type II collagen (K-41, manufactured by collagen Gijutsu Kenkyukai) solution (3 mg/ml) dissolved in 0.05N acetic acid and Freund's complete adjuvant (Freund, Adjuvant Complete; No. F5506, manufactured by Sigma Co.) were mixed in equal amounts and subjected to ultrasonic treatment (under cooling with ice, 20 seconds×3 times) to obtain a uniform emulsion.
0.1 ml (150 μg) of the antigen prepared as described above, was administered to the tail head skin of a female DBA/1JNCrj mouse of 5 weeks old (purchased from Charles River Japan, Inc.) (Day 0). After 2 weeks from sensitization (Day 14), Compound No. 164 (50 mg/kg) suspended in a 1% Tween 80/physiological sodium chloride aqueous solution was intraperitoneally administered (administered in a volume of 10 ml/kg) once a day continuously for 5 weeks. To the vehicle control group, the 1% Tween 80/physiological sodium chloride aqueous solution was administered in the same manner.
Sideration of arthritis was observed once a week from Day 1 in accordance with the following evaluation standards disclosed in a literature of Kato, F. et al (Annals of the Rheumatic Diseases, Vol. 55, 535-539, 1996) with respect to Knuckle joints of the respective four limbs.

SMILES | Metastatis inhibition ratio (%) ([1]; 10 mg/kg × 11 times (head), oral, Day 15) | Lung weight increase (g) against normal mouse ([1]; 10 mg/kg × 11 times (head), oral, Day 15, vehicle control 0.183 ± 0.11) | Weight of lung (g) (Day 15) ([1]; 10 mg/kg × 11 times (head), oral, Day 15, vehicle control 0.364, normal mouse 0.181) | inhibition ratio of experimental metastasis of Colon 26/AD to lung ([1]; 10 mg/kg, oral administration, total of 12 times, male BALB/c mouse, from lung weight) | Inhibition ratio (%) against capillary-like tube formation ([2]; 0.1 μM) | Number of networks Average ± SD ([2]; 0.1 μM) | Inhibition ratio (%) against capillary-like tube formation ([2]; 1 μM) | Number of networks Average ± SD ([2]; 1 μM) | Inhibition ratio (%) against capillary-like tube formation ([2]; 10 μM) | Number of networks Average ± SD ([2]; 10 μM) | Inhibition ratio (%) against capillary-like tube formation ([2]; 100 μM) | Number of networks Average ± SD ([2]; 100 μM) | sideration of arthritis compared with the control group ([3]; 50 mg/kg intraperitoneal everyday from Day 14 for 5 weeks, female DBA/1J mouse, p<0.01, Wilcoxon ranking test) | toxicity / body weight increase by observation of general findings ([3]; 50 mg/kg intraperitoneal everyday, during the test period) | Sideration ratio of arthritis (number of diseased animals/number of tested animals) ([3]; Day 14 (initial of administration of drug), 50 mg/kg intraperitoneal, vehicle control 0/8) | Sideration ratio of arthritis (number of diseased animals/number of tested animals) ([3]; Day 21, 50 mg/kg intraperitoneal once a day, vehicle control 2/8) | Sideration ratio of arthritis (number of diseased animals/number of tested animals) ([3]; Day 28, 50 mg/kg intraperitoneal once a day, vehicle control 7/8) | Sideration ratio of arthritis (number of diseased animals/number of tested animals) ([3]; Day 35, 50 mg/kg intraperitoneal once a day, vehicle control 8/8) | Sideration ratio of arthritis (number of diseased animals/number of tested animals) ([3]; Day 42, 50 mg/kg intraperitoneal once a day, vehicle control 8/8) | Sideration ratio of arthritis (number of diseased animals/number of tested animals) ([3]; Day 49, 50 mg/kg intraperitoneal once a day, vehicle control 8/8)
CS(=O)(=O)NC(=C[N+](=O)[O-])NNc1cc(C(F)(F)F)cc(Cl)n1 [Compound No. 157, N-(1-(6-chloro-4-trifluoromethyl-2-pyridyl)hydrazino-2-nitroethenyl)methanesulfonamide] | 59.5%* | 0.070 ± 0.08 g | 0.257 g | 59.5% | – | – | – | – | – | – | – | – | – | – | – | – | – | – | – | –
CCOCCOc1cc(C(F)(F)F)cc(NNC(=C[N+](=O)[O-])NC)n1 [Compound No. 107] | – | – | – | – | 35* % | 20.0 ± 5.7 | 41* % | 18.2 ± 1.6 | 62* % | 11.8 ± 5.0 | 93* % | 2.0 ± 2.8 | – | – | – | – | – | – | – | –
CCOCCOc1cc(C(F)(F)F)cc(NNC(=C[N+](=O)[O-])NS(C)(=O)=O)n1 [Compound No. 164, N-(1-(6-(2-ethoxyethoxy)-4-trifluoromethyl-2-pyridyl)hydrazino-2-nitroethenyl)methanesulfonamide] | – | – | – | – | 23% | 23.6 ± 3.2 | 44* % | 17.2 ± 4.1 | 44* % | 17.2 ± 6.0 | 66* % | 10.4 ± 5.7 | significantly delayed | no distinct toxicity or inhibition against the body weight increase | 0/8 | 0/8 | 2/8 | 6/8 | 7/8 | 7/8
